According to patent publication US7223733B2, “Modulation of TRIP-Br function and method of treating proliferative disorders” (National University of Singapore, priority 2004, dated 2007):
Where no end group is shown, it is not given here.

Columns and labels:
[1] = tested on: KRIP-1-associated co-activating function on GAL4-TRIP-Br transcriptional activity; test: GAL4-TRIP-Br/KRIP-1 luciferase reporter assay in U2OS cells; assay type: cell-based, human; details: 50 μM decoy peptide
Description: (§1) DNA Transfection and Sequential β-Galactosidase/Luciferase Assay. For luciferase reporter assays, U2OS cells were cultured in 6-well dishes and transfected 24 h later with various reporter plasmids by the calcium precipitation method as previously described (Martin, K., et al. Nature 375, 691-694 (1995)). 24 h following precipitate removal, cells were exposed for 5 h to either vehicle (0.5% DMSO) or 50 μM of decoy peptide, prior to harvesting. Cells were scraped in 200 μl of lysis buffer and a single 10 μl aliquot of lysate was immediately used for sequential measurement of β-galactosidase and luciferase activity using the Dual Light System (Tropix). For protein overexpression experiments, U2OS cells were cultured in 6-well plates at a density of 1×10^5 cells/well and transfected 24 h later with Superfect reagent (QIAGEN).
FIG. 1: TRIP-Br decoy peptides antagonize KRIP-1/TRIP-Br PHD-bromodomain interactions. […] GAL4-KRIP-1 was specifically immunoprecipitated by the agarose-conjugated anti-GAL4 antibody (Lanes 3-5 & 7–10) but not by the non-specific control anti-cyclin E antibody (Lane 6); (B) Antagonism of PHD-bromodomain interactions in vivo. U2OS cells were transiently transfected with 0.4 μg of the indicated GAL4 expression constructs and 1.2 μg of pMT3A/KRIP-1, along with 0.4 μg of the minimal luciferase reporter pG5-GL3 and 0.1 μg of the control reporter pCMV/β-gal. […]

[2] = tested on: E2F-responsive luciferase reporter (pGL3-TATA-6xE2F-Luc); test: E2F-responsive luciferase reporter assay in U2OS cells; assay type: cell-based, human; details: 50 μM, 5 h
Description: as §1
FIG. 3: Analysis of E2F-responsive transcription in U2OS cells in response to decoy peptide treatment. […] Values represent the average +/− standard deviation of at least two independent experiments; (B) Semi-quantitative RT-PCR analysis on total RNA for dhfr, cyclin-E, cyclin A2, PCNA, DNA Pola and cdc2 expression in U2OS cells exposed for 16 h to either vehicle (0.5% DMSO) or 50 μM of the indicated decoy peptides. […]

[3] = tested on: Caski (cervical carcinoma); test: Anti-proliferative phenotypes in Caski cells; assay type: cell-based; details: data not shown
[4] = tested on: CNE2 tumor; test: Chick embryo chorioallantoic membrane (CAM) tumor xenograft model; assay type: in vivo; details: 50 μM topically, daily; p<0.05
From the text: Cell lines. Human nasopharyngeal cancer cell line CNE2 and human melanoma cell line Mewo were used for tumor inoculation.
Chicken embryo CAM preparation. To apply cells onto the CAM of 10-day old chick embryos, a 2-cm diameter wide window was opened in the flat pole of the eggshell with an electric drill equipped with a 0.3-mm thick×22-mm diameter Carborundum disc. The shell window was removed with forceps. The inner shell membrane was carefully punctured with a fine sterile forcep and removed to expose the underlying CAM. A small portion of the CAM was then gently traumatized by laying a strip of lens tissue (1-cm wide) on the surface of the CAM and then removing it immediately.
Inoculation, closure & incubation. The inoculum (1×10^6 cells/egg for CNE2 cell line and 3×10^6 cells/egg for Mewo cell line in 50 μl of blank medium) was applied onto the small patch of traumatized CAM. Following inoculation, the window was covered with a 35 mm tissue culture dish and sealed with scotch tape. The embryos were returned to the incubator in an upright position and allowed to incubate for seven additional days, with daily monitoring.
Peptide treatment & assessment of growth inhibitory effects. The treatment was initiated two days after tumor inoculation.
The eggs were randomized into 4 treatment groups, with each group comprising at least 4 biological replicates. […]

| Sequence | KRIP-1-associated co-activating function on GAL4-TRIP-Br transcriptional activity [1] | transcriptional activity of the E2F-responsive luciferase reporter [2] | response of Caski cells [3] | growth of CNE2 tumor (tumour weight) [4] |
| --- | --- | --- | --- | --- |
| ERQIKIWFQNRRMKWKKTGFLTDLTLDDILFADID (ERQIKIWFQNRRMKWKKTGFLTDLTLDDILFADID-NH2) [*Br2] | complete abolishment | decreased the transcriptional activity | in manners similar to those exhibited by U2OS cells | significantly inhibited the growth of CNE2 tumor |
| ERQIKIWFQNRRMKWKKATGCLLDDGLEGLFEDID (ERQIKIWFQNRRMKWKKATGCLLDDGLEGLFEDID-NH2) [*Br1] | complete abolishment | decreased the transcriptional activity | in manners similar to those exhibited by U2OS cells | significantly inhibited the growth of CNE2 tumor |
